Experiments:
[1] = molecular target: T1, TIR1–ASK1–IAA7 auxin receptor complex (ASK1–TIR1–Aux/IAA–IAA receptor complex) (Arabidopsis thaliana, UniProt Q570C0); assay: competitive radioligand displacement of [3H]-InsP6, Ni-NTA pull-down; type: binding
T1 construct: ASK1–TIR1 co-purified from insect cells; IAA7 ORF as recombinant His8-MBP fusion (pET28-His8-MBP vector); mixed at molar ratio 1:3 (ASK1–TIR1 : IAA7); with SKP1-like protein 1A; Auxin-responsive protein IAA7
T1 sequence (Q570C0 1-594): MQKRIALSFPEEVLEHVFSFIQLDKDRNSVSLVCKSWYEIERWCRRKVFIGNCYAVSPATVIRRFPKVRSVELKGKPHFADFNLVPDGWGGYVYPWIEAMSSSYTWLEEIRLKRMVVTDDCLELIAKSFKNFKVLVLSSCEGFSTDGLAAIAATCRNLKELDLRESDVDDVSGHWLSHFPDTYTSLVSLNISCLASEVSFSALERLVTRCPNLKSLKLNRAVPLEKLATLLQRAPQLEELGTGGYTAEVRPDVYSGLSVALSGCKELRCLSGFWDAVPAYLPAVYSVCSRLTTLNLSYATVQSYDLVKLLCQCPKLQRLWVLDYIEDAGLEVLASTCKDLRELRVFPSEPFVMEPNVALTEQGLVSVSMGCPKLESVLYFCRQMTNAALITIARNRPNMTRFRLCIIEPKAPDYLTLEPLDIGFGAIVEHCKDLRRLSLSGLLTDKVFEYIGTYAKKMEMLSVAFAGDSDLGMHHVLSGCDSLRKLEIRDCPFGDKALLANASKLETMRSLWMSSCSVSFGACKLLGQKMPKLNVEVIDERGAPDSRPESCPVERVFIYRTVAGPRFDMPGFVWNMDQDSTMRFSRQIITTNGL
T1 sequence (Q39255 1-160 partner): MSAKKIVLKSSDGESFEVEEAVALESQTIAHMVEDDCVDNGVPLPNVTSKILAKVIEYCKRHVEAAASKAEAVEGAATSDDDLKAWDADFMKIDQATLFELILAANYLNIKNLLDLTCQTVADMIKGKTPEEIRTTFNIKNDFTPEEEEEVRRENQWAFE
T1 sequence (Q38825 1-243 partner): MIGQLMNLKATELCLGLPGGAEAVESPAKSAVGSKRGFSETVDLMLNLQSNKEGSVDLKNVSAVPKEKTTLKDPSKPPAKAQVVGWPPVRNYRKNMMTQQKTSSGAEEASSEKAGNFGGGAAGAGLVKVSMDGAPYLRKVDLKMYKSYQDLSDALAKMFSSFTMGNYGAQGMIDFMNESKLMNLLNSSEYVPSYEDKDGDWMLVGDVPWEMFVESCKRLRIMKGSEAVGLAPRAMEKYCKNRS

[2] = molecular target: T1, TIR1–ASK1–IAA7 auxin receptor complex (ASK1–TIR1–Aux/IAA–IAA receptor complex); assay: auxin-dependent pull-down of ASK1–TIR1 with [3H]-InsP6 by His8-MBP-IAA7; type: binding; conditions: 0.1 uM IAA versus no auxin; pH 7.5, 4 °C; read-out is recovered [3H]-InsP6

O=P(O)(O)O[C@@H]1[C@@H](OP(=O)(O)O)[C@H](OP(=O)(O)O)[C@@H](O)[C@@H](OP(=O)(O)O)[C@H]1OP(=O)(O)O [InsP5 [3-OH]]
IC50 [1]: 31 nM

O=P(O)(O)O[C@H]1[C@@H](OP(=O)(O)O)[C@H](OP(=O)(O)O)[C@@H](O)[C@H](OP(=O)(O)O)[C@H]1OP(=O)(O)O [InsP5 [5-OH]]
IC50 [1]: 34 nM

O=P(O)(O)O[C@@H]1[C@@H](OP(=O)(O)O)[C@@H](OP(=O)(O)O)[C@@H](O)[C@H](OP(=O)(O)O)[C@H]1OP(=O)(O)O [InsP5 [1-OH]]
IC50 [1]: 114 nM

O=C(O)Cc1c[nH]c2ccccc12 [IAA]
auxin-dependent pull-down of ASK1-TIR1 with [3H]-InsP6 by His8-MBP-IAA7 [2]: auxin is critical for the interaction between ASK–TIR1 and Aux/IAA protein

O=P(O)(O)O[C@H]1[C@@H](OP(=O)(O)O)[C@H](OP(=O)(O)O)[C@@H](OP(=O)(O)OP(=O)(O)O)[C@H](OP(=O)(O)O)[C@H]1OP(=O)(O)O [5-InsP7]
IC50 [1]: 20 nM

O=P(O)(O)O[C@H]1[C@H](OP(=O)(O)O)[C@@H](OP(=O)(O)O)[C@H](OP(=O)(O)O)[C@@H](OP(=O)(O)O)[C@H]1OP(=O)(O)O [InsP6]
IC50 [1]: 19 nM

From PMC9706486, “INOSITOL (1,3,4) TRIPHOSPHATE 5/6 KINASE1-dependent inositol polyphosphates regulate auxin responses in Arabidopsis” (Plant Physiology, 2022)
